Here are results for four compounds from patent US11993600B2, “Saturated spirocyclics as antiviral agents” (ENANTA PHARMACEUTICALS, INC., priority 2021, dated 2024).

Molecules are shown by their SMILES. A value given as a limit tells only on which side of the number the result lay.

What is called IC50 is the concentration that gives 50% inhibition.

This test deals with SARS-CoV-2 3CL-protease (Severe acute respiratory syndrome coronavirus 2 (2019-nCoV) (SARS-CoV-2), UniProt P0DTD1). Description: SARS-CoV-2 3C-like (3CL) protease fluorescence assay (FRET). In kind it is biochemical. Conditions: recombinant SARS-CoV-2 3CL-protease 10 nM, 30 min preincubation at RT, substrate 40 μM, run in duplicate.
With `CC(C)C[C@@H](C(=O)N1C[C@]2(CCC3(CC3)NC2=O)C[C@H]1C#N)N(C)C(=O)c1cc2c(F)cc(F)cc2[nH]1` [Compound 4, N—((S)-1-((6S,9S)-9-cyano-5-oxo-4,8-diazadispiro[2.2.4^6.2^3]dodecan-8-yl)-4-methyl-1-oxopentan-2-yl)-4,6-difluoro-N-methyl-1H-indole-2-carboxamide], the IC50 is less than 100 nM.

In the case of `CN(C(=O)c1cc2c(F)cc(F)cc2[nH]1)[C@@H](CC(C)(C)F)C(=O)N1C[C@]2(CCCNC2=O)C[C@H]1C#N` [Compound 3, N—((S)-1-((3S,5S)-3-cyano-6-oxo-2,7-diazaspiro[4.5]decan-2-yl)-4-fluoro-4-methyl-1-oxopentan-2-yl)-4,6-difluoro-N-methyl-1H-indole-2-carboxamide], the IC50 is less than 100 nM.

Consider `CC(C)C[C@@H](C(=O)N1C[C@]2(CCCNC2=O)C[C@H]1C#N)N(C)C(=O)c1cc2c(F)cc(F)cc2[nH]1` [Compound 2, N—((S)-1-((3S,5S)-3-cyano-6-oxo-2,7-diazaspiro[4.5]decan-2-yl)-4-methyl-1-oxopentan-2-yl)-4,6-difluoro-N-methyl-1H-indole-2-carboxamide], for which the IC50 was less than 100 nM.

`CN(C(=O)c1cc2c(F)cc(F)cc2[nH]1)[C@@H](CC(C)(C)F)C(=O)N1C[C@]2(CCNC2=O)C[C@H]1C#N` [Compound 1, N—((S)-1-((3S,5S)-3-cyano-6-oxo-2,7-diazaspiro[4.4]nonan-2-yl)-4-fluoro-4-methyl-1-oxopentan-2-yl)-4,6-difluoro-N-methyl-1H-indole-2-carboxamide]: the IC50 is less than 100 nM.
